From ChEMBL document CHEMBL3112438, “Structure-based optimization of cyclopropyl urea derivatives as potent soluble epoxide hydrolase inhibitors for potential decrease of renal injury without hypotensive action” (Bioorg Med Chem, 2014)
≈ marks a conversion by molar mass, not a printed value. Calls of active or inactive are those of the source. No cut-off for these calls is given here.

Key:
[1] = target: T1, Bifunctional epoxide hydrolase 2 (Homo sapiens, UniProt P34913); assay: Inhibition of human recombinant soluble epoxide hydrolase after 1 hr by fluorescence assay
T1 sequence (P34913 whole entry): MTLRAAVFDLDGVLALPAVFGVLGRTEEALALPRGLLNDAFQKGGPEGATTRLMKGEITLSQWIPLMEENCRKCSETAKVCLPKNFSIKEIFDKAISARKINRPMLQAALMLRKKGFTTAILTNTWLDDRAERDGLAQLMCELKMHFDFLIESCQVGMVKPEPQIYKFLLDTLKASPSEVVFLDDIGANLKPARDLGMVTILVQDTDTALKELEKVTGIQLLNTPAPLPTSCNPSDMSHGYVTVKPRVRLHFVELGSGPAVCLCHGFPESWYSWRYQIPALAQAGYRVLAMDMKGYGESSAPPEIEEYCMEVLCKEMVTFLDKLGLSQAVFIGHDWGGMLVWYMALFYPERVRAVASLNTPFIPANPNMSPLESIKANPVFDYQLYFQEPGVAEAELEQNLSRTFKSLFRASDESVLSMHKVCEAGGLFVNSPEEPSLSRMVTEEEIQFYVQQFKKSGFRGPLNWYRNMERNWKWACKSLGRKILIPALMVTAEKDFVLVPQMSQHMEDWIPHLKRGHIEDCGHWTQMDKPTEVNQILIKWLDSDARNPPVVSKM

[2] = target: T2, Bifunctional epoxide hydrolase 2 (Rattus norvegicus, UniProt P80299); assay: Inhibition of rat recombinant soluble epoxide hydrolase after 1 hr by fluorescence assay
T2 sequence (P80299 whole entry): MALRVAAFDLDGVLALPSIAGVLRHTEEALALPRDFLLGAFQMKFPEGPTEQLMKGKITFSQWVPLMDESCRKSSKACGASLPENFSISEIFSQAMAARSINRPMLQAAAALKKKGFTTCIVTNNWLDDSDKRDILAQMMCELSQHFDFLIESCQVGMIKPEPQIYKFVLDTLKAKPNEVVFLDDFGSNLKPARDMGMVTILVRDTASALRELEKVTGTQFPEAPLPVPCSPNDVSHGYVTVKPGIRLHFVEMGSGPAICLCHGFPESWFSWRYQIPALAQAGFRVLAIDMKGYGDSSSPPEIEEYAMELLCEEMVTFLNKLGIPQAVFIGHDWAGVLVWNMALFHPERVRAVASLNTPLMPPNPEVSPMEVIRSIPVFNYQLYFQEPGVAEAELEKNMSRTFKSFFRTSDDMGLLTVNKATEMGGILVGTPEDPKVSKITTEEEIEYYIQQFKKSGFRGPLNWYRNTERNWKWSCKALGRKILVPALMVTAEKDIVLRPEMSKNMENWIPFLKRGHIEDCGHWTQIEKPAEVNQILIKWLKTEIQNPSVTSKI

[3] = Aqueous solubility of the compound at pH 7.4 after 90 mins; format: physicochemical
[4] = system: Liver microsome; assay: Intrinsic clearance in human liver microsomes measured per mg of protein at 1 uM after 30 mins by LC/MS/MS analysis; format: ADME; conditions: 0.5 h
[5] = system: Liver microsome; assay: Intrinsic clearance in rat liver microsomes measured per mg of protein at 1 uM after 30 mins by LC/MS/MS analysis; format: ADME; conditions: 0.5 h
[6] = target: T3, Cytochrome P450 2C8 (Homo sapiens, UniProt P10632); assay: Inhibition of CYP2C8 in human liver microsomes after 10 mins by LC/MS/MS analysis; format: ADME
T3 sequence (P10632 whole entry): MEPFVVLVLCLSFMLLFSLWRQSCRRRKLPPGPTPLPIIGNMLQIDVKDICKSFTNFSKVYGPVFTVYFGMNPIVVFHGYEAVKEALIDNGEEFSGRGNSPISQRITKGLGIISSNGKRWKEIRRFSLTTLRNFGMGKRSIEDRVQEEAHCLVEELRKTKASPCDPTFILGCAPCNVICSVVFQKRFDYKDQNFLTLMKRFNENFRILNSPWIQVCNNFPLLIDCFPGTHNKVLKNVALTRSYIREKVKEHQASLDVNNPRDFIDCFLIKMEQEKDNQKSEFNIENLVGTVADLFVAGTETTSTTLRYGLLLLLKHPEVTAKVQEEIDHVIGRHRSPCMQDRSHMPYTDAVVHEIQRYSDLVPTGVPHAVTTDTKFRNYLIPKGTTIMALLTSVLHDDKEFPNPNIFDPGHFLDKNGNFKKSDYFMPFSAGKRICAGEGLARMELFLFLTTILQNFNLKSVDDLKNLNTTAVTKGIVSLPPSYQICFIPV

[7] = system: Rattus norvegicus; assay: AUC in Sprague-Dawley rat at 10 mg/kg, po; format: ADME, organism-based, Plasma; parameters: dose 10 mg/kg, route oral; conditions: in vivo
[8] = system: Rattus norvegicus; assay: Bioavailability in Sprague-Dawley rat at 1 mg/kg, iv and 10 mg/kg, po; format: ADME, organism-based; conditions: in vivo
[9] = target: T4, Cytochrome P450 2C19 (Homo sapiens, UniProt P33261); assay: Inhibition of CYP2C19 in human liver microsomes after 10 mins by LC/MS/MS analysis; format: ADME
[10] = system: Rattus norvegicus; assay: Antihypertensive activity in Sprague-Dawley rat DOCA-salt model assessed as decrease in systolic blood pressure at 100 mg/kg, po measured on day 28 post last dose by tail-cuff method; format: functional, organism-based; parameters: dose 100 mg/kg; conditions: Artery
[11] = system: Rattus norvegicus; assay: Ex vivo inhibition of soluble epoxide hydrolase in Sprague-Dawley rat whole blood assessed as inhibition of 14,15-DHET production at 100 mg/kg, po measured after 1 to 6 hrs by ELISA relative to vehicle-treated control; format: functional
[12] = system: Rattus norvegicus; assay: Renoprotective activity in Sprague-Dawley rat DOCA-salt model assessed as decrease in urinary MCP-1 excretion at 100 mg/kg, po measured on day 28 post last dose; format: functional, organism-based; parameters: dose 100 mg/kg; conditions: Urine
[13] = system: Rattus norvegicus; assay: Renal toxicity in Sprague-Dawley rat DOCA-salt model assessed as effect on N-acetyl-beta-D-glucosaminidase level at 100 mg/kg, po measured on day 28 post last dose; format: organism-based; parameters: dose 100 mg/kg, route oral; conditions: in vivo
[14] = system: Rattus norvegicus; assay: Renoprotective activity in Sprague-Dawley rat DOCA-salt model assessed as decrease in urinary albumin excretion at 100 mg/kg, po measured on day 28 post last dose; format: functional, organism-based; parameters: dose 100 mg/kg; conditions: Urine
[15] = system: Rattus norvegicus; assay: Ex vivo inhibition of soluble epoxide hydrolase in po dosed Sprague-Dawley rat assessed as inhibition of 14,15-DHET production measured after 1 to 24 hrs by ELISA; format: functional, organism-based
[16] = target: T3, Cytochrome P450 2C8; assay: Inhibition of CYP2C8 in human liver microsomes after 10 mins by mechanism-based assay; format: ADME
[17] = target: T4, Cytochrome P450 2C19; assay: Inhibition of CYP2C19 in human liver microsomes after 10 mins by mechanism-based assay; format: ADME

T4 sequence (P33261 whole entry): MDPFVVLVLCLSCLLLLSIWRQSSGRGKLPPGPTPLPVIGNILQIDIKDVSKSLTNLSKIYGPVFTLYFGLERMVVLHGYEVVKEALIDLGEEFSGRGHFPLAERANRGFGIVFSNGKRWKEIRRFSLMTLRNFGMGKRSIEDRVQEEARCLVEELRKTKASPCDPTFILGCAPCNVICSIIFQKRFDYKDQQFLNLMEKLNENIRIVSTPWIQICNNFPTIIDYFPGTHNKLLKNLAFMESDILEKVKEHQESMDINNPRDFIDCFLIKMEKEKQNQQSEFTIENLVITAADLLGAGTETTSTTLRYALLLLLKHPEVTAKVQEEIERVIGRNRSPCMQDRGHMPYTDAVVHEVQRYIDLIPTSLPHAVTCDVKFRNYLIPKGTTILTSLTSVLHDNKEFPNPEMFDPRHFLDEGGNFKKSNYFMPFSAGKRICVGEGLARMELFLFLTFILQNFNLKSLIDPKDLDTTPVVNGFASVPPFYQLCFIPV

IC50 [1] | IC50 [2] | Compound | further results
12 nM | 8 nM | O=C(N[C@H]1C[C@@H]1c1ccccc1)N1CCC(Oc2cccc(Cl)c2)CC1 (racemic) | –
22.4 nM | 9.3 nM | O=C(N[C@H]1C[C@@H]1c1ccccc1)N1CCC(Oc2ccc(Cl)cc2)CC1 (racemic) | –
3.1 nM | 4.2 nM | Cc1ccccc1OC1CCN(C(=O)N[C@H]2C[C@@H]2c2ccccc2)CC1 (racemic) | solubility at 1.5 h [3]: < 0.2 µg/mL
8.9 nM | 6.5 nM | Cc1cccc(OC2CCN(C(=O)N[C@H]3C[C@@H]3c3ccccc3)CC2)c1 (racemic) | –
14.2 nM | 6.8 nM | Cc1ccc(OC2CCN(C(=O)N[C@H]3C[C@@H]3c3ccccc3)CC2)cc1 (racemic) | –
2.1 nM | 3.2 nM | O=C(N[C@H]1C[C@@H]1c1ccccc1)N1CCC(Oc2ccccc2C(F)(F)F)CC1 (racemic) | –
15.8 nM | 10.5 nM | O=C(N[C@H]1C[C@@H]1c1ccccc1)N1CCC(Oc2cccc(C(F)(F)F)c2)CC1 (racemic) | –
11.3 nM | 12.8 nM | COc1ccccc1OC1CCN(C(=O)N[C@H]2C[C@@H]2c2ccccc2)CC1 (racemic) | –
10.2 nM | 5 nM | COc1ccc(OC2CCN(C(=O)N[C@H]3C[C@@H]3c3ccccc3)CC2)cc1 (racemic) | –
14.7 nM | 20.7 nM | O=C(N[C@H]1C[C@@H]1c1ccccc1)N1CCC(Oc2ccccc2-c2ccccc2)CC1 (racemic) | –
10.7 nM | 5.9 nM | O=C(N[C@H]1C[C@@H]1c1ccccc1)N1CCC(Oc2cccc(-c3ccccc3)c2)CC1 (racemic) | –
12 nM | 6.7 nM | O=C(N[C@H]1C[C@@H]1c1ccccc1)N1CCC(Oc2ccc(-c3ccccc3)cc2)CC1 (racemic) | –
> 100 nM | > 100 nM | O=C(O)c1ccccc1OC1CCN(C(=O)N[C@H]2C[C@@H]2c2ccccc2)CC1 (racemic) | –
> 100 nM | > 100 nM | O=C(O)c1cccc(OC2CCN(C(=O)N[C@H]3C[C@@H]3c3ccccc3)CC2)c1 (racemic) | CLint [4]: < 10 µL/min/mg; solubility at 1.5 h [3]: > 150 µg/mL; CLint [5]: < 10 µL/min/mg
30.3 nM | 32.2 nM | O=C(O)c1ccc(OC2CCN(C(=O)N[C@H]3C[C@@H]3c3ccccc3)CC2)cc1 (racemic) | CLint [4]: < 10 µL/min/mg; solubility at 1.5 h [3]: > 150 µg/mL; CLint [5]: < 10 µL/min/mg
3.3 nM | 6.6 nM | O=C(N[C@H]1C[C@@H]1c1ccccc1)N1CCC(Oc2ccc(-c3nnn[nH]3)cc2)CC1 (racemic) | IC50 [6]: 800 nM; CLint [4]: < 33 µL/min/mg; solubility at 1.5 h [3]: > 150 µg/mL; CLint [5]: < 10 µL/min/mg
2.6 nM | 4.1 nM | O=C(O)c1ccc(OC2CCN(C(=O)N[C@H]3C[C@@H]3c3ccccc3)CC2)c(Cl)c1 (racemic) | AUC [7]: 15900 ng·h/mL; IC50 [6]: > 50000 nM; F [8]: 31%; IC50 [9]: > 50000 nM; CLint [4]: < 10 µL/min/mg; solubility at 1.5 h [3]: > 150 µg/mL; CLint [5]: < 10 µL/min/mg
18 nM | 18.3 nM | O=C(N[C@H]1C[C@@H]1c1ccccc1)N1CCC(Oc2ccccc2)CC1 (racemic) | –
27.4 nM | 35.4 nM | O=C(N[C@H]1C[C@@H]1c1ccccc1)N1CCC(Oc2ccccn2)CC1 (racemic) | –
25.2 nM | 20.2 nM | O=C(N[C@H]1C[C@@H]1c1ccccc1)N1CCC(Oc2cccnc2)CC1 (racemic) | –
24.4 nM | 12.3 nM | O=C(N[C@H]1C[C@@H]1c1ccccc1)N1CCC(Oc2ccncc2)CC1 (racemic) | –
94.2 nM | > 100 nM | O=C(N[C@H]1C[C@@H]1c1ccccc1)N1CCC(Oc2ncccn2)CC1 (racemic) | –
26.7 nM | 25.6 nM | O=C(N[C@H]1C[C@@H]1c1ccccc1)N1CCC(Oc2cnccn2)CC1 (racemic) | –
27.1 nM | 5.2 nM | O=C(N[C@H]1C[C@@H]1c1ccccc1)N1CCC(OC(c2ccccc2)c2ccccc2)CC1 (racemic) | –
2 nM | 3.5 nM | O=C(N[C@H]1C[C@@H]1c1ccccc1)N1CCC(Oc2ccccc2Cl)CC1 (racemic) | –
– | 8.3 nM | CC(C)c1noc(C2CCN(C(=O)N[C@H]3C[C@@H]3c3ccccc3)CC2)n1 (relative stereo) | CLint [4]: < 10 µL/min/mg; solubility at 1.5 h [3]: 41 µg/mL (≈ 116 µM); inhibition (INH) [16]: Active; CLint [5]: 79 µL/min/mg; inhibition (INH) [17]: Active
29.8 nM | 8.9 nM | O=C(N[C@H]1C[C@@H]1c1ccccc1)N1CCC(Oc2ccc(C(F)(F)F)cc2)CC1 (relative stereo) | –
7.4 nM | 5.1 nM | COc1cccc(OC2CCN(C(=O)N[C@H]3C[C@@H]3c3ccccc3)CC2)c1 (relative stereo) | –
43.2 nM | 56.6 nM | O=C(O)Cc1ccc(OC2CCN(C(=O)N[C@H]3C[C@@H]3c3ccccc3)CC2)cc1 (relative stereo) | CLint [4]: < 33 µL/min/mg; solubility at 1.5 h [3]: > 150 µg/mL; CLint [5]: < 10 µL/min/mg

Compound | IC50 [1] | IC50 [2] | further results
O=C(O)Cc1ccc(OC2CCN(C(=O)N[C@H]3C[C@@H]3c3ccccc3)CC2)c(Cl)c1 (racemic) | 4.3 nM | 6.6 nM | Activity [10]: inactive; inhibition in vivo at 100 mg/kg [11]: < 20%; AUC [7]: 30400 ng·h/mL; IC50 [6]: > 50000 nM; F [8]: 63%; Activity [12]: Active; IC50 [9]: > 50000 nM; CLint [4]: < 10 µL/min/mg; solubility at 1.5 h [3]: > 150 µg/mL; Activity [13]: Non-toxic; Activity [14]: Active; CLint [5]: < 10 µL/min/mg; inhibition [15]: Dose-dependent effect
